{"source": "patent US4977161A", "about": "“Isoxazolopyridine type mevalonolactones” (Nissan Chemical Industries, Ltd., priority 1988, dated 1990)", "key": {"[1]": {"tested_on": "cholesterol biosynthesis in Hep G2 cells", "assay": "Test B-1: Inhibition of cholesterol biosynthesis in culture cells (Hep G2)", "assay_type": "cell-based", "settings": "Homo sapiens, HepG2, 100×10^-9 M/l, [2-14C]sodium acetate added at 0 hr, read-out: Inhibition activities by Test B-1", "description": "Hep G2 cells at over 5th passage were seeded to 12 well plates and incubated with Dulbecco's modified Eagle (DME) medium containing 10% of fetal bovine serum (FBS) at 37° C., 5% CO2 until cells were confluent for about 7 days. Cells were exposed to the DME medium containing 5% of lipoprotein deficient serum (LpDS) prepared by ultracentrifugation method for over 24 hours. Medium was changed to 0.5 ml of fresh 5% LpDS containing DME before assay and 10 μl of test compound solution dissolved in water or DMSO were added. 0.2 μCi of [2-^14 C]sodium acetate (20 μl) was added at 0 hr(B-1) or 4 hrs(B-2) after addition of compounds. After 4 hrs further incubation with [2-^14 C] sodium acetate, medium was removed and cells were washed with phosphate buffered saline (PBS) chilled at 4° C. Cells were scraped with rubber policeman and collected to tubes with PBS and digested with 0.2 ml of 0.5 N KOH at 37° C. Aliquot of digestion was used for protein analysis and remaining was saponified with 1 ml of 15% EtOH-KOH at 75° C. for 1 hour. Nonsaponifiable lipids were extracted with petroleum ether and ^14 C radioactivity was counted. Counts were revised by cell protein and indicated with DPM/mg protein. Inhibitory activity of compounds was indicated with IC50.\nWith respect to the compounds of the present invention, the inhibitory activities against the cholesterol biosynthesis in which HMG-CoA reductase serves as a rate limiting enzyme, were measured by the above Test A and B. The results are shown in Tables 2 and 3.\nIn Table 3, the inhibition activities of the test compounds at a concentration of 100×10^-9 M/l, are shown."}, "cholesterol biosynthesis": {"tested_on": "cholesterol biosynthesis", "assay": "Test C: Inhibition of cholesterol biosynthesis in vivo", "parameters": "species or system male Sprague-Dawley rats", "settings": "oral, 0.2 mg/kg", "description": "Male Sprague-Dawley rats weighing about 150 g were fed normal Purina chow diet and water ad libitum, and exposed to 12 hours light/12 hours dark lighting pattern\n(2:00 PM -2:00 AM dark) prior to use for in vivo inhibition test of cholesterol biosynthesis. Animals were separated groups consisting of five rats as to be average mean body weight in each groups. Test compounds at dosage of 0.02-2.0 mg/kg body weight (0.4 ml/100 g body weight), were dissolved in water or suspended in 0.5% methyl cellulose and orally administered at 2-3 hours before mid-dark (8:00 PM), while cholesterol biosynthesis reaches to maximum in rats. As control, rats were orally administered only water or vehicle. At 90 minutes after sample administration, rats were injected intraperitoneally with 10 μCi of [2-^14 C]sodium acetate at volume of 0.2 ml per one. 2 Hours later, blood samples were obtained and serum were separated immediately. Total lipids were extracted according to the method of Folch et al. and saponified with EtOH-KOH. Nonsaponifiable lipids were extracted with petroleum ether and radio activity incorporated into nonsaponifiable lipids was counted.\nInhibitory activity was indicated as percent decrease of counts in testing groups (DPM/2 ml serum/2 hours) from that in control group."}, "[2]": {"target": "cholesterol biosynthesis in which HMG-CoA reductase serves as a rate limiting enzyme", "assay": "Test A: Inhibition of cholesterol biosynthesis from acetate in vitro", "assay_type": "biochemical, male Wistar rat", "settings": "for Relative activities by Test A: based on the activities of CS-514 by Test A being evaluated to be 1", "description": "Enzyme solution was prepared from liver of male Wistar rat billialy connulated and discharged bile for over 24 hours. Liver was cut out at mid-dark and microsome and supernatant fraction which was precipitable with 40-80% of solution of ammonium sulfate (sup fraction) were prepared from liver homogenate according to the modified method of Knauss et. al.; Kuroda, M., et. al., Biochim. Biophys. Acta, 489, 119 (1977). For assay of cholesterol biosynthesis, microsome (0.1 mg protein) and sup fraction (1.0 mg protein) were incubated for 2 hours at 37° C. in 200 μl of the reaction mixture containing ATP; 1 mM, Glutathione; 6 mM, Glucose-1phosphate; 10 mM, […]; 0.25 mM, NADP; 0.25 mM, CoA; 0.04 mM and 0.2 mM [2-14C]sodium acetate (0.2 μCi) with 4 μl of test compound solution dissolved in water or dimethyl sulfoxide. To stop reaction and saponify, 1 ml of 15% EtOH-KOH was added to the reactions and heated at 75° C. for 1 hour. Nonsaponifiable lipids were extracted with petroleum ether and incorporated ^14 C radioactivity was counted. Inhibitory activity of compounds was indicated with IC50."}, "ICR male mice": {"tested_on": "ICR male mice", "assay": "Test D: Acute toxicity", "assay_type": "in vivo", "settings": "oral, 0.5% CMC suspension, group of three mice; dose not given", "description": "A 0.5% CMC suspension of a test compound was orally administered to ICR male mice (group of three mice). The acute toxicity was determined based on the mortality after seven days."}}, "data": [{"smiles": "CC[C@H](C)C(=O)O[C@H]1C[C@H](O)C=C2C=C[C@H](C)[C@H](CC[C@@H](O)C[C@@H](O)CC(=O)O)[C@H]21", "note": "[CS-514, reference compound]", "values": [{"measurement": "inhibition at 0.1 µM", "setting": "[1]", "value": 18.4, "unit": "%"}, {"measurement": "percent decrease of counts relative to the control group (DPM/2 ml serum/2 hours)", "setting": "cholesterol biosynthesis", "value": 34, "unit": "%"}, {"measurement": "IC50", "setting": "[2]; rat liver microsome and sup fraction, [2-14C]sodium acetate, 2 hours at 37° C.", "value": 9, "unit": "nM"}]}, {"smiles": "CCOC(=O)CC(O)CC(O)/C=C/c1c(C(C)C)nc2onc(C)c2c1-c1ccc(F)cc1", "note": "(stereo not drawn) [Compound I-1-1]", "values": [{"measurement": "inhibition at 0.1 µM", "setting": "[1]", "value": 50.1, "unit": "%"}, {"measurement": "Relative activities by Test A", "setting": "[2]", "value": 1.6}]}, {"smiles": "CCOC(=O)CC(O)CC(O)/C=C/c1c(C(C)C)nc2onc(-c3ccccc3)c2c1-c1ccc(F)cc1", "note": "(stereo not drawn) [Compound I-1-2]", "values": [{"measurement": "inhibition at 0.1 µM", "setting": "[1]", "value": 57.3, "unit": "%"}]}, {"smiles": "Cc1noc2nc(C(C)C)c(/C=C/C(O)CC(O)CC(=O)O)c(-c3ccc(F)cc3)c12", "note": "(stereo not drawn) [Compound I-5-1, Sodium (E)-7-[4'-(4\"-fluorophenyl)-3'-methyl-6'-(1\"-methylethyl)isoxazolo[5,4-b]pyridin-5'-yl]-3,5-dihydroxyhept-6-enoate]", "values": [{"measurement": "Relative activities by Test A", "setting": "[2]", "value": 1.3}]}, {"smiles": "CC(C)c1nc2onc(-c3ccccc3)c2c(-c2ccc(F)cc2)c1/C=C/C(O)CC(O)CC(=O)O", "note": "(stereo not drawn) [Compound I-5-2]", "values": [{"measurement": "acute toxicity, mortality after seven days", "setting": "ICR male mice", "value": "only one animal of the three animals died"}, {"measurement": "inhibition at 0.1 µM", "setting": "[1]", "value": 43.2, "unit": "%"}, {"measurement": "percent decrease of counts relative to the control group (DPM/2 ml serum/2 hours)", "setting": "cholesterol biosynthesis", "value": 34.3, "unit": "%"}, {"measurement": "Relative activities by Test A", "setting": "[2]", "value": 0.6}]}, {"smiles": "CCOC(=O)CC(=O)CC(O)/C=C/c1c(C(C)C)nc2onc(C)c2c1-c1ccc(F)cc1", "note": "(stereo not drawn) [Compound II-1, Ethyl (E)-7-[4'-(4\"-fluorophenyl)-3'-methyl-6'-(1\"-methylethyl)isoxazolo[-5,4-b]pyridin-5-yl]-5'-hydroxy-3-oxohepto-6-enoate]", "values": [{"measurement": "inhibition at 0.1 µM", "setting": "[1]", "value": 52.6, "unit": "%"}]}]}
